This experiment in a line: Biochemical Assay: Test compounds were placed in a Greiner Bio-One (Monroe, N.C.) 1536-well black solid bottom assay plate. 200 millimolar (mM) Tris HCl, pH 7.4, 100 micromolar (μM) EDTA and 0.01% TWEEN-20™, final concentration, was used as the assay buffer. The LDHA reagent was 2 nanomolar (nM) Human LDHA (Meridian Life Science, Inc., Memphis, Tenn.), final concentration, in assay buffer.

A word on the IC50: it is the point on the concentration scale where inhibition reaches its midpoint. A low value points to inhibition by little substance. Turning to `NS(=O)(=O)c1ccc(Oc2cn(-c3nc(C(=O)O)cs3)nc2-c2ccccc2)cc1`, the IC50 was less than 0.1 µM.

In the case of `NS(=O)(=O)c1ccc(Cc2c(-c3ccc(F)c(C#CC4CCC4)c3)nn(-c3nc(C(=O)O)cs3)c2CC2CC2)cc1F`, the IC50 was less than 0.1 µM.

Consider `NS(=O)(=O)c1ccc(Cc2c(-c3cccc(N4CCC(C(F)(F)F)CC4)c3)nn(-c3nc(C(=O)O)cs3)c2CC2CC2)cc1F`, for which the IC50 was less than 0.1 µM.

`CC1(C#Cc2cc(-c3nn(-c4nc(C(=O)O)cs4)c(CC4CC4)c3Cc3ccc(S(N)(=O)=O)c(F)c3)ccc2F)COC1`: the IC50 is less than 0.1 µM.

`COc1cccc(-c2cc(-c3nn(-c4nc(C(=O)O)cs4)c(C4CC4)c3Cc3ccc(S(N)(=O)=O)cc3F)ccc2F)c1` showed an IC50 of less than 0.1 µM.

Turning to `CC(C)=Cc1cc(-c2nn(-c3nc(C(=O)O)cs3)c(CC3CC3)c2Cc2ccc([SH+](N)[O-])c(F)c2)ccc1F` (centres undefined), the IC50 was less than 0.1 µM.

Turning to `NS(=O)(=O)c1ccc(Cc2c(-c3cccc(-c4cccc(F)c4)c3)nn(-c3nc(C(=O)O)cs3)c2CC2CC2)cc1F`, the IC50 is less than 0.1 µM.

For the compound `Cc1oc(=O)oc1COC(=O)c1csc(-n2nc(-c3ccc(F)c(C#CC4CCCC4)c3)c(Cc3ccc(S(N)(=O)=O)c(F)c3)c2CC2CC2)n1`, the IC50 was greater than 57 µM.

Consider `NC(=O)c1csc(-n2nc(-c3cccc(-c4ccccc4)c3)c(Cc3ccc(S(N)(=O)=O)cc3)c2O)n1`, for which the IC50 was greater than 57 µM.

In turn, `COc1cccc(-c2cccc(-c3nn(-c4nc(C(=O)O)cs4)c(C4CC4)c3Cc3ccc(S(N)(=O)=O)cc3F)c2)c1` displayed a half-maximal inhibitory concentration (IC50) of less than 0.1 µM.

For the compound `NS(=O)(=O)c1ccc(Cc2c(-c3cccc(-c4cccc(F)c4)c3)nn(-c3nc(C(=O)O)cs3)c2C2CC2)c(F)c1`, the IC50 is less than 0.1 µM.

As to `NS(=O)(=O)c1ccc(Cc2c(C3CCCC3)nn(-c3nc(C(=O)O)cs3)c2-c2ccccc2)cc1`, the IC50 result is “in the range around 29 µM”.

For the compound `Cc1ccc(C#Cc2cccc(-c3nn(-c4nc(C(=O)O)cs4)c(CC4CC4)c3Cc3ccc(S(N)(=O)=O)c(F)c3)c2)s1`, the half-maximal inhibitory concentration (IC50) was less than 0.1 µM.

The compound `Cc1ccc(-c2cccc(-c3nn(-c4nc(C(=O)O)cs4)c(CC4CC4)c3Cc3ccc(S(N)(=O)=O)cc3)c2)cc1` gave an IC50 of less than 0.1 µM.

In the case of `NS(=O)(=O)c1ccc(Cc2c(-c3cccc(-c4ccccc4)c3)nn(-c3nc(C(=O)O)cs3)c2CC2CC2)cc1F`, the IC50 is less than 0.1 µM.

Consider `Cc1ccc(-c2cccc(-c3c(Cc4ccc(S(N)(=O)=O)c(F)c4)c(C4CC4)nn3-c3nc(C(=O)O)cs3)c2)cc1`, for which the IC50 result is “in the range around 29 µM”.

Compound `NS(=O)(=O)c1ccc(Cc2cn(-c3nc(C(=O)O)cs3)nc2-c2ccc(F)c(F)c2)cc1` had an IC50 of less than 0.1 µM.

`COc1cccc(-c2cccc(-c3c(Cc4ccc(S(N)(=O)=O)cc4F)c(C4CC4)nn3-c3nc(C(=O)O)cs3)c2)c1`: the IC50 entry was “in the range around 29 µM”.

The compound `Cc1ccc(-c2cc(-c3nn(-c4nc(C(=O)O)cs4)c(CC4CC4)c3Cc3ccc(S(N)(=O)=O)c(F)c3)ccc2F)cc1` came in with a half-inhibitory concentration (IC50) of less than 0.1 µM.

`CC#Cc1cccc(-c2nn(-c3nc(C(=O)O)cs3)c(CC3CC3)c2Cc2ccc(S(N)(=O)=O)c(F)c2)c1`: the IC50 was less than 0.1 µM.

Regarding `NS(=O)(=O)c1ccc(Cc2c(-c3ccc(F)c(CCCCC(F)(F)F)c3)nn(-c3nc(C(=O)O)cs3)c2CC2CC2)cc1F`, the IC50 is less than 0.1 µM.

For the compound `CC(C)(O)C#Cc1cc(-c2nn(-c3nc(C(=O)O)cs3)c(CC3CC3)c2Cc2ccc(S(N)(=O)=O)c(F)c2)ccc1F`, the IC50 is less than 0.1 µM.

As to `NS(=O)(=O)c1ccc(Cc2c(-c3ccc(F)c(C#CCN4CCCC4)c3)nn(-c3nc(C(=O)O)cs3)c2CC2CC2)cc1F`, the IC50 is less than 0.1 µM.

`NS(=O)(=O)c1ccc(Cc2c(-c3ccc(F)c(Br)c3)nn(-c3nc(C(=O)O)cs3)c2CC2CC2)cc1` showed an IC50 of less than 0.1 µM.

Compound `Cc1noc(C)c1-c1cc(-c2nn(-c3nc(C(=O)O)cs3)c(CC3CC3)c2Cc2ccc(S(N)(=O)=O)c(F)c2)ccc1F` registered an IC50 of less than 0.1 µM.

Turning to `O=C(O)c1ccc(Cc2c(-c3cccc(-c4ccccc4)c3)nn(-c3nc(C(=O)O)cs3)c2O)cc1`, the half-inhibitory concentration (IC50) was greater than 57 µM.

Regarding `NS(=O)(=O)c1ccc(Cc2c(-c3cccc(OCc4ccccc4)c3)nn(-c3nc(C(=O)O)cs3)c2CC2CC2)c(F)c1`, the IC50 is less than 0.1 µM.

As to `CCOC(=O)c1csc(-n2nc(-c3cccc(OC4CCCC4)c3)c(Cc3ccc(S(N)(=O)=O)c(F)c3)c2CC2CC2)n1`, the IC50 entry is “in the range around 29 µM”.

In turn, `NS(=O)(=O)c1ccc(Cc2c(-c3cccc(-c4ccccc4)c3)nn(-c3nc(C(=O)O)cs3)c2CC2CC2)cc1` displayed an IC50 of less than 0.1 µM.

As for `NS(=O)(=O)c1ccc(Cc2c(-c3ccc(F)c(-c4cccc(F)c4)c3)nn(-c3nc(C(=O)O)cs3)c2C(F)(F)F)cc1`, the IC50 was less than 0.1 µM.

In turn, `NS(=O)(=O)c1ccc(Cc2c(-c3ccc(F)c(C4=COCCC4)c3)nn(-c3nc(C(=O)O)cs3)c2CC2CC2)cc1F` showed an IC50 of less than 0.1 µM.

For the compound `Cc1ccc(-c2cccc(-c3nn(-c4nc(C(=O)O)cs4)c(CC4CC4)c3Cc3ccc(S(N)(=O)=O)c(F)c3)c2)cc1`, the IC50 is less than 0.1 µM.

For the compound `CC(C)(C)C#Cc1cc(-c2nn(-c3nc(C(=O)O)cs3)c(CC3CC3)c2Cc2ccc(S(N)(=O)=O)c(F)c2)ccc1F`, the IC50 was less than 0.1 µM.

Regarding `NS(=O)(=O)c1ccc(Cc2c(CC3CC3)nn(-c3nc(C(=O)O)cs3)c2-c2ccc(F)c(-c3cccc(F)c3)c2)cc1`, the IC50 entry is “in the range around 29 µM”.

The compound `NS(=O)(=O)c1ccc(Cc2c(-c3ccc(F)c(C#CC4=CCCC4)c3)nn(-c3nc(C(=O)O)cs3)c2CC2CC2)cc1F` had an IC50 of less than 0.1 µM.

Turning to `CCOC(=O)c1csc(-n2nc(C3CCCCC3)c(Oc3ccc(S(N)(=O)=O)cc3)c2-c2ccccc2)n1`, the IC50 is greater than 57 µM.

Regarding `NS(=O)(=O)c1ccc(Cc2c(-c3cccc(C#CC4CCCC4)c3)nn(-c3nc(C(=O)O)cs3)c2CC2CC2)cc1F`, the IC50 was less than 0.1 µM.

For the compound `NS(=O)(=O)c1ccc(Cc2c(-c3ccc(F)c(C#CC4CC4)c3)nn(-c3nc(C(=O)O)cs3)c2CC2CC2)cc1F`, the IC50 was less than 0.1 µM.

In turn, `CCOC(=O)c1csc(-n2nc(-c3cccc(-c4ccc(C)cc4)c3)c(Cc3ccc(S(N)(=O)=O)cc3F)c2CC2CC2)n1` displayed an IC50 greater than 57 µM.

As to `Cc1ccc(-c2cc(-c3c(Cc4ccc(S(N)(=O)=O)cc4)c(CC4CC4)nn3-c3nc(C(=O)O)cs3)ccc2F)cc1`, the IC50 entry was “in the range around 29 µM”.

`C=C(c1cc(-c2nn(-c3nc(C(=O)O)cs3)c(CC3CC3)c2Cc2ccc(S(N)(=O)=O)c(F)c2)ccc1F)C(F)(F)F`: the 50% inhibitory concentration (IC50) was less than 0.1 µM.

`NS(=O)(=O)c1ccc(Cc2c(CC3CC3)nn(-c3nc(C(=O)O)cs3)c2-c2cccc(-c3ccccc3)c2)c(F)c1`: the IC50 entry is “in the range around 29 µM”.

`COc1cc(-c2nn(-c3nc(C(=O)O)cs3)c(CC3CC3)c2Cc2ccc(S(N)(=O)=O)cc2)ccc1F` displayed an IC50 of less than 0.1 µM.

With `CCOC(=O)c1csc(-n2nc(-c3ccccc3)c(Oc3ccc(S(N)(=O)=O)cc3)c2C2CCCCC2)n1`, the IC50 was greater than 57 µM.

In the case of `NS(=O)(=O)c1ccc(Cc2c(-c3ccc(F)c(-c4ccc(C5CC5)cc4)c3)nn(-c3nc(C(=O)O)cs3)c2CC2CC2)cc1`, the IC50 was less than 0.1 µM.

For `NS(=O)(=O)c1ccc(Cc2c(-c3ccc(F)c(-c4cccc(F)c4)c3)nn(-c3nc(C(=O)O)cs3)c2C2CC2)c(F)c1`, the half-inhibitory concentration (IC50) was less than 0.1 µM.

`CCOC(=O)c1csc(-n2nc(-c3ccc(F)c(-c4ccc(C)s4)c3)c(Cc3ccc(S(N)(=O)=O)c(F)c3)c2CC2CC2)n1` returned an IC50 greater than 57 µM.

On to `Cc1csc(-c2cc(-c3nn(-c4nc(C(=O)O)cs4)c(CC4CC4)c3Cc3ccc(S(N)(=O)=O)cc3F)ccc2F)c1`, for which the IC50 was less than 0.1 µM.

Take `Cc1csc(-c2cc(-c3nn(-c4nc(C(=O)O)cs4)c(CC4CC4)c3Cc3ccc(S(N)(=O)=O)c(F)c3)ccc2F)c1`: the IC50 was less than 0.1 µM.

For the compound `NS(=O)(=O)c1ccc(Cc2cn(-c3nc(Br)cs3)nc2-c2ccccc2)cc1`, the half-inhibitory concentration (IC50) result is “in the range around 29 µM”.

In the case of `CCOC(=O)c1csc(-n2nc(-c3ccc(F)c(-c4cccc(F)c4)c3)c(Cc3ccc(S(N)(=O)=O)cc3F)c2CC2CC2)n1`, the IC50 entry is “in the range around 29 µM”.

In the case of `C#Cc1c(Cc2ccc(S(N)(=O)=O)cc2)c(-c2ccccc2)nn1-c1nc(C(=O)O)cs1`, the IC50 entry was “in the range around 29 µM”.

In the case of `NS(=O)(=O)c1ccc(Cc2c(-c3ccc(F)c(-c4ccc(F)cc4)c3)nn(-c3nc(C(=O)O)cs3)c2C2CC2)cc1F`, the IC50 was less than 0.1 µM.

Take `COc1cccc(-c2cc(-c3c(Cc4ccc(S(N)(=O)=O)cc4F)c(CC4CC4)nn3-c3nc(C(=O)O)cs3)ccc2F)c1`: the half-maximal inhibitory concentration (IC50) result is “in the range around 29 µM”.

`NS(=O)(=O)c1ccc(Cc2c(CC3CC3)nn(-c3nc(C(=O)O)cs3)c2-c2ccc(F)c(-c3ccc(F)cc3)c2)cc1`: the IC50 result is “in the range around 29 µM”.

Compound `NS(=O)(=O)c1ccc(Cc2c(-c3ccc(F)c(C4CCC4)c3)nn(-c3nc(C(=O)O)cs3)c2CC2CC2)cc1F` came in with a concentration for half-maximal inhibition (IC50) of less than 0.1 µM.

With `Cc1ccc(-c2cc(-c3nn(-c4nc(C(=O)O)cs4)c(C4CC4)c3Cc3ccc(S(N)(=O)=O)cc3F)ccc2F)cc1`, the IC50 is less than 0.1 µM.

The compound `NS(=O)(=O)c1ccc(Cc2c(-c3ccc(F)c(CC4CC4)c3)nn(-c3nc(C(=O)O)cs3)c2CC2CC2)cc1F` had an IC50 of less than 0.1 µM.

`CS(=O)(=O)c1ccc(Cc2c(-c3ccc(F)c(C#CCC4CCCO4)c3)nn(-c3nc(C(=O)O)cs3)c2CC2CC2)cc1F` (centres undefined) yielded an IC50 of less than 0.1 µM.

`NS(=O)(=O)c1ccc(Cc2c(-c3cccc(S(F)(F)(F)(F)F)c3)nn(-c3nc(C(=O)O)cs3)c2CC2CC2)cc1F` yielded an IC50 of less than 0.1 µM.

For the compound `NS(=O)(=O)c1ccc(Cc2c(-c3ccc(F)c(-c4ccc(F)cc4)c3)nn(-c3nc(C(=O)O)cs3)c2C(F)(F)F)cc1`, the IC50 is less than 0.1 µM.

`O=C(O)c1csc(-n2nc(-c3ccc(F)cc3)cc2O)n1` returned an IC50 greater than 57 µM.

As for `Cc1noc(C)c1-c1cc(-c2c(Cc3ccc(S(N)(=O)=O)c(F)c3)c(CC3CC3)nn2-c2nc(C(=O)O)cs2)ccc1F`, the IC50 is greater than 57 µM.

The compound `CC(C)c1cc(-c2nn(-c3nc(C(=O)O)cs3)c(CC3CC3)c2Cc2ccc(S(N)(=O)=O)c(F)c2)ccc1F` returned an IC50 of less than 0.1 µM.

For the origin of these results see ChEMBL document CHEMBL5728971, “Small molecule inhibitors of lactate dehydrogenase and methods of use thereof” (2022).
